# Earlier results in patent US20050113573A1, “Nitroso compounds to treat ischemia” (priority 2003, published 2005).
# Experiments:
# neointimal proliferation = settings: rat
# [1] = tested on: intimal proliferation and platelet deposition; settings: rabbits, local administration, after vascular arterial balloon injury
# femoral arteries = settings: hypercholesterolemic mice, prolonged treatment
# platelet adhesion = settings: pigs
# rabbit iliac arteries = rabbit iliac arteries after balloon angioplasty
# [2] = tested on: smooth muscle cell proliferation; settings: pigs
# [3] = 700 stable coronary patients, treated before the angioplasty
# [4] = tested on: ischemically injured livers; settings: severe ischemia/reperfusion
# cerebral infarcts = settings: versus vehicle treated animals
compound,measurement,setting,value
CC(C(=O)OCCCCO[N+](=O)[O-])c1ccc(-c2ccccc2)c(F)c1 (stereo not shown) [HCT-1026],neointimal proliferation,neointimal proliferation,reduction in the neointimal proliferation
same,nitrite/nitrate plasma levels,neointimal proliferation,increase in nitrite/nitrate plasma levels
poly thiolated form of bovine serum albumin: poly thiolated form of bovine serum albumin modified to include several S-nitrosothiol groups,intimal proliferation and platelet deposition,[1],inhibited intimal proliferation and platelet deposition
CC(=O)Oc1ccccc1C(=O)Oc1cccc(CO[N+](=O)[O-])c1 [nitric oxide releasing aspirin],vascular inflammation and apoptosis during vascular remodeling,femoral arteries,reduced the vascular inflammation and promoted apoptosis
"S-nitroso-bovine serum albumin: protein adduct of nitric oxide, locally delivered",intimal proliferation and platelet deposition,[1],inhibited intimal proliferation and platelet deposition
N=c1c[n+](N2CCOCC2)[n-]o1 [3-morpholino-sydnonimine],effect on platelet adhesion,platelet adhesion,antiadhesive effects
CCOC(=O)[N-]c1cn(N2CCOCC2)n[o+]1 [molsidomine],neointimal area,rabbit iliac arteries,significant reduction of the neointimal area
same,smooth muscle cell proliferation following balloon angioplasty,[2],inhibits smooth muscle cell proliferation following balloon angioplasty
same,clinical outcome,[3],no effect on the clinical outcome
same,long-term angiographic result,[3],modest improvement in the long-term angiographic result
N=C(N)NCCC[C@H](N)C(=O)O [L-arginine],"liver function, neutrophil infiltration and animal survival after liver ischemia/reperfusion injury",[4],beneficial for the liver after severe ischemia/reperfusion
same,neointimal area,rabbit iliac arteries,significant reduction of the neointimal area
same,cerebral infarcts,cerebral infarcts,smaller cerebral infarcts than those in vehicle treated animals
